From paper PMC9965125, “New NSAID Conjugates as Potent and Selective COX-2 Inhibitors: Synthesis, Molecular Modeling and Biological Investigation” (Molecules, 2023)
Where “and” joins values, the source holds several entries; their conditions need not be identical. Equal entries are not always repeated.

What was measured:
[1] = test system: acetic acid-induced abdominal writhing; assay: acetic acid-induced abdominal writhing assay (peripheral analgesic); format: in vivo, mice; details: for % Inhibition/Protection / Writing Reflex ± SE: 10 mg/kg indomethacin mol equivalent i.p.; for Potency: % inhibition/protection compared to indomethacin; for Writing Reflex ± SE: number of writhing counted for 30 min
Method: Peripheral analgesic testing
Peripheral analgesic activity was measured by the standard acetic acid-induced writhing […]
One hour after intraperitoneally (i,p.) administration of 10 mg kg−1 (mice body weight) […]
distilled/sterile water by the aid of two drops of Tween 80, each mouse was injected with 0.1 ml of 1% acetic acid solution i.p. The control group animals were given sterile/distilled water only with few drops of Tween 80. Starting 5 min after the acetic acid injection, the number of muscular contractions in each mouse was counted for 30 min. A significant reduction in the number of writhing by any test compound as compared to control animals was considered as a positive analgesic response. Percentage protection was calculated according to equ. (3), where n stands for the average number of writhing in the control group and n' is the average number of writhing in the treated group. The % potency was calculated by equ. (4) (Table 2).
% Inhibition/protection = n−n′ x100 … . (3)

[2] = test system: hot plate latency; assay: hot plate assay (central analgesic); format: in vivo, mice; details: for % Protection / Latency Period ± SE: 10 mg/kg indomethacin mol equivalent i.p.; for Latency Period ± SE: cutoff 15 sec; for Potency: at 120 min compared to indomethacin
Method: The % potency was calculated by equ. (4) (Table 2). […]
% Potency = % protection of the tested compound x 100 ……. (4) […]
Central analgesic (hot plate) testing
The standard hot plate technique was undertaken by in vivo standard hot plate test [ 1,2]. […]
by placing them on a hot plate maintained at 55 ± 1 °C, 30 min. […]
suspended in sterile/distilled water by the ai d of two drops of Tween 80, and recording the reaction time in seconds for forepaw licking or jumping. The control group animals were given sterile/distilled water only with few drops of Tween 80. The maximum cutoff time was chosen as 15 sec. to prevent tissue damage. Response latencies were measured 30, 60, 90 and 120 min. after the application. The % protection was calculated by equ. ( 5) where, T1, T0 are the latency time mean of the tested compound and control group, respectively (Table 3).

[3] = test system: carrageenan induced paw edema; assay: carrageenan-induced rat paw edema; format: in vivo; details: for % Inhibition of Edema ± Standard Error / Mean Edema Thickness: 10 mg/kg indomethacin mol equivalent i.p.; for Mean Edema Thickness: ± standard error
Method: Anti-inflammatory activity screening
The anti-inflammatory activity of the tested compounds was determined in-vivo by the acute carrageenan induced paw edema standard method in rats. Adult Wister rats of either sex (pregnant female animals were excluded) weighing 120–150 g were divided into 19 groups of 6 animals each. The tested compounds dissolved in DMSO, at a dose of 10 mg kg-1 (rat body […]
inflammation. The control group was given DMSO only. Paw edema was induced by subcutaneous injection of freshly prepared 1% solution of carrageenan in saline (0.9%, 0.1 ml per rat) into subplantar tissue of the right hind paw of rats. The thickness of the paw was measured (in mm) after successive time intervals (1, 2, 3, 4 and 24 h) and compared with the initial hind paw thickness of each rat for determining the edema thickness. Data were collected, checked, revised and analyzed (SPSS 16). Quantitative variables from normal distribution were expressed as means ± SE “standard error”. The anti-inflammatory activity was expressed as percentage inhibition of edema thickness in treated animals in comparison with the control group according to eqn. (1) […]
% Inhibition of edema= Vc-Vt x 100 … .. (1)
Where, Vc and Vt are the means of edema paw thickness for the control and tested compound treated animal groups, respectively.
The potency of the tested compounds was expressed as % inhibition of edema thickness […]
% Potency = % inhibition of edema for the tested compound treated group x 100 … . (2)

| SMILES | % Inhibition/Protection [1] | Potency [1] | Writing Reflex ± SE [1] | % Protection ([2]; after 30 min) | Latency Period ± SE ([2]; after 30 min) | % Protection ([2]; after 60 min) | Latency Period ± SE ([2]; after 60 min) | % Protection ([2]; after 90 min) | Latency Period ± SE ([2]; after 90 min) | Latency Period ± SE ([2]; after 120 min) | Potency [2] | % Inhibition of Edema ± Standard Error ([3]; 1 h) | % Inhibition of Edema ± Standard Error ([3]; 24 h) | % Protection ([2]; after 120 min) | % Inhibition of Edema ± Standard Error ([3]; 4 h) | also measured |
| --- | --- | --- | --- | --- | --- | --- | --- | --- | --- | --- | --- | --- | --- | --- | --- | --- |
| CC(C)Cc1ccc(C(C)C(=O)OCc2cn(-c3ccc(F)cc3)nn2)cc1 (stereo not drawn) [Compound 5c, (1-(4-Fluorophenyl)-1H-1,2,3-triazol-4-yl)methyl 2-(4-isobutylphenyl)propanoate] | 83.3% | 116.0% | 6.7 ± 0.5 | 112.1% | 14.17 ± 2.6 s | 106.3% | 15.0 ± 2.3 s | 67.3% | 14.91 ± 2.5 s | 10.63 ± 1.8 s | 31.9 | 0.00 ± 1.0% | 0.00 ± 0.2% | – | – | % Protection ([2]; after 120 min, 10 mg/kg): 18%; % protection relative to its parent drug ibuprofen ([2]; at 30 min): 1.8 folds |
| COc1ccc(-n2cc(COC(=O)C(C)c3ccc(CC(C)C)cc3)nn2)cc1 (stereo not drawn) [Compound 5f, (1-(4-Methoxyphenyl)-1H-1,2,3-triazol-4-yl)methyl 2-(4-isobutylphenyl)propanoate] | 80.0% | 111.4% | 8.0 ± 1.4 | 90.1% | 12.7 ± 0.9 s | 56.8% | 11.40 ± 1.5 s | 19.0% | 10.60 ± 1.9 s | 9.03 ± 1.6 s | 0.4 | – | 2.5 ± 0.9% | 0.2% | 1.8 ± 0.7% | – |
| CC(C)Cc1ccc(C(C)C(=O)OCc2cn(-c3ccc([N+](=O)[O-])cc3)nn2)cc1 (stereo not drawn) [Compound 5g, (1-(4-Nitrophenyl)-1H-1,2,3-triazol-4-yl)methyl 2-(4-isobutylphenyl)propanoate] | 65.0% | 90.5% | 14.0 ± 1.9 | 87.1% | 12.5 ± 2.1 s | 73.2% | 12.59 ± 1.5 s | 19.0% | 10.60 ± 2.6 s | 11.54 ± 2.2 s | 49.7 | 34.0 ± 1.8% | 0.00 ± 0.5% | 28.1% | – | – |
| COc1ccc2c(c1)c(CC(=O)OCc1cn(-c3ccccc3Cl)nn1)c(C)n2C(=O)c1ccc(Cl)cc1 [Compound 8a, (1-(2-Chlorophenyl)-1H-1,2,3-triazol-4-yl)methyl 2-(1-(4-chlorobenzoyl)-5-methoxy-2-methyl-1H-indol-3-yl)acetate] | 49.3% | 68.7% | 20.3 ± 1.8 | 82.5% | 12.19 ± 1.9 s | 85.8% | 13.51 ± 1.7 s | 55.4% | 13.85 ± 1.4 s | 13.63 ± 1.3 s | 90.8 | 0.00 ± 1.5% | – | 51.3% | 26.9 ± 1.1% | Mean Edema Thickness ([3]; 1 h): 0.863 ± 0.07 mm; % Inhibition of Edema ± Standard Error ([3]; 2 h): 44.9 ± 1.7%; Mean Edema Thickness ([3]; 2 h): 0.393 ± 0.08 mm; % Inhibition of Edema ± Standard Error ([3]; 3 h, 10 mg/kg): 32.5% and 32.5 ± 1.5%; Mean Edema Thickness ([3]; 3 h): 0.488 ± 0.07 mm; Mean Edema Thickness ([3]; 4 h): 0.521 ± 0.03 mm; % Inhibition of Edema ± Standard Error ([3]; 24 h, 10 mg/kg): 33.3% and 33.3 ± 2.4%; Mean Edema Thickness ([3]; 24 h): 0.614 ± 0.09 mm; % Potency ([3]; % inhibition of edema thickness relative to indomethacin at 3 h): 40.1% |
| COc1ccc2c(c1)c(CC(=O)OCc1cn(-c3ccc(Cl)cc3)nn1)c(C)n2C(=O)c1ccc(Cl)cc1 [Compound 8b, (1-(4-Chlorophenyl)-1H-1,2,3-triazol-4-yl)methyl 2-(1-(4-chlorobenzoyl)-5-methoxy-2-methyl-1H-indol-3-yl)acetate] | 46.3% | 64.5% | 21.5 ± 1.5 | 2.4% | 6.84 ± 1.4 s | 14.3% | 8.31 ± 1.9 s | 11.2% | 9.91 ± 1.7 s | 9.88 ± 2.0 s | 17.2 | – | – | 9.7% | – | anti-inflammatory efficacy (in words) ([3]; carrageenan-induced rat paw edema): no anti-inflammatory efficacy |
| COc1ccc2c(c1)c(CC(=O)OCc1cn(-c3ccc(F)cc3)nn1)c(C)n2C(=O)c1ccc(Cl)cc1 [Compound 8c, (1-(4-Fluorophenyl)-1H-1,2,3-triazol-4-yl)methyl 2-(1-(4-chlorobenzoyl)-5-methoxy-2-methyl-1H-indol-3-yl)acetate] | 41.3% | 57.5% | 23.5 ± 1.4 | 69.5% | 11.32 ± 0.8 s | 29.2% | 9.39 ± 1.1 s | 27.9% | 11.40 ± 1.6 s | 13.34 ± 1.8 s | 85.1 | – | 0.00 ± 1.0% | 48.1% | – | – |
| COc1ccc2c(c1)c(CC(=O)OCc1cn(-c3ccc(C)cc3)nn1)c(C)n2C(=O)c1ccc(Cl)cc1 [Compound 8d, (1-(p-Tolyl)-1H-1,2,3-triazol-4-yl)methyl 2-(1-(4-chlorobenzoyl)-5-methoxy-2-methyl-1H-indol-3-yl)acetate] | 62.5% | 87.0% | 15.0 ± 1.6 | 97.8% | 13.21 ± 2.5 s | 74.0% | 12.65 ± 2.0 s | 50.1% | 13.37 ± 1.6 s | 13.39 ± 1.2 s | 86.0 | 0.00 ± 0.8% | 0.00 ± 0.4% | 48.6% | 0.00 ± 0.6% | % Inhibition of Edema ± Standard Error ([3]; 3 h): 0.00 ± 0.5% |
